Read-outs that look alike come from different tables or passages of the source.

The test system of one data set is tumor-feeding vessels. How it is done: (§1) Studies were conducted in 5 human patients with stage 4 neoplastic disease. Two of the patients had primary hepatoma (patients 1 and 2), two had giant cell tumor of the bone (patients 3 and 4) and one had renal cell carcinoma (patient 5).
(§2) The lithium salt of GLA was obtained from Scotia Pharmaceuticals, U.K. The PUFA salt was dissolved in sterile saline, sterile phosphate buffered saline (PBS, pH 7.4) or dilute ethanol in saline (final concentration <0.02% ethanol). The final concentration of PUFA in these solutions was approximately 25%. The PUFA solution was mixed with an iodized lymphographic oil (LIPIODOL ULTRA FLUIDE®, Laboratoire Guerbet, Paris, France), in a ratio of between 1:1.5 and 1:3 (volume/volume). In some cases, the PUFA was modified by covalent conjugation (e.g., amide bond) to the iodized lymphographic oil. In other cases the PUFA salt was unmodified, and was diluted directly into the lymphographic agent without conjugation. The PUFA and lymphographic oil mixture was prepared under sterile conditions immediately prior to use.
(§3) Patients were admitted into the hospital for the study. A proximal artery suppling a major portion of the blood supply to the tumor was identified. Catheterization of the major artery from which the proximal artery arises was performed under local anaesthesia. In patients 1 and 2 (with hepatomas), the tip of the catheter was positioned in the right hepatic artery via the right femoral artery. In patient 3 (with giant cell tumor of the right lower end of the femur), the tip of the catheter was positioned in the right femoral/popliteal artery. In patient 4 (with giant cell tumor of the left scapula), the tip of the catheter was positioned in the left subdlavian/axillary arteries. In patient 5 (with left kidney tumor), the tip of the catheter was positioned in the left renal artery. Conjugated PUFA salt was prepared fresh, just prior to injection. Radiographic and CT scan examinations were performed immediately after the injection and at periodic intervals in all the five patients.
(§4) In order to determine how the arterial supply to the tumor tissue was influenced by the injection of PUFA salt, angiography was performed and recorded during and immediately after the procedure, and at periodic intervals thereafter.
(§5) Patients 1 and 2 with hepatoma were administered total doses of 1.6 gm and 0.75 gm respectively (the dose refers to the amount of Li-GLA) of PUFA salt into the right hepatic artery through the right femoral route. Patient 3, with giant cell tumor of the lower end of the right femur, underwent right femoral artery catheterization and the tip of the catheter was positioned in the popliteal artery to deliver 500 mg of PUFA salt. Patient 4, who had giant cell tumor of the left scapula, received PUFA salt by selective cannulation of the left subdlavian artery, through the femoral route, from which the tumor-feeding vessel was arising and was given 660 mg of PUFA salt. Patient 5, with renal tumor, received 750 mg of PUFA salt through the right femoral route into the left renal artery from which the tumor-feeding vessels were arising. In all the patients, the administration of PUFA salt was done as swiftly as possible. During the administration of PUFA salt, the vital signs of each patient were monitored.

Data set [1] relates to stage 4 neoplastic disease (hepatoma, giant cell tumor of the bone, renal cell carcinoma). How it is done: as §1, §2, §3
as §5, with “Patient 5, with renal tumor, received 750 mg of PUFA salt through the right femoral route into the left renal artery from which the tumor-feeding vessels were arising. In all the patients, the administration of PUFA salt was done as swiftly as possible.” left out

The procedure of data set [2]:
as §3, §5

For data set [3], the system named is normal arteries including the celiac, subclavian and popliteal arteries. How it is done:
Moreover, in several other patients, a PUFA was injected into normal arteries including the celiac, subclavian and popliteal arteries.
as §4

In the next data set the test system is tumor cells. As to conditions: cited from earlier work; for differential cytotoxic effect, tumor cells versus normal cells: well defined culture conditions.
In a further data set the test system is human gliomas. As to conditions: direct intra-tumoral administration; cited from earlier work.
The mark [4] stands for this setting: patient 4, seven and a half years after injection.

On to `CCCCC/C=C\C/C=C\C/C=C\CCCCC(=O)[O-].[Li+]` [PUFA salt, lithium salt of GLA], for which, in the data set with tumor-feeding vessels (all 5 patients, intra-arterial, 0.5-1.6 gm Li-GLA mixed with or conjugated to LIPIODOL), the “occlusion of the tumor-feeding vessels following PUFA salt injection” value is listed as “total occlusion of the tumor-feeding vessels”. In the data set with tumor-feeding vessels (all types of tumor-feeding vessels, irrespective of size), the “speed of occlusion of tumor-feeding vessels” value is “almost instantaneously”. Besides, the “occlusion of tumor-feeding vessels in third angiogram” value with tumor-feeding vessels (patient 1, hepatoma, 1 week after second dose (0.5 gm), 11th day after first dose) was “almost complete occlusion”. For the same compound, in the data set on tumor-feeding vessels (patient 1, hepatoma, 4 days after first dose), the “tumor blush in repeat angiogram” value is “much reduced”. For the same compound, the “tumor-feeding vessels visible on repeat angiogram” value with tumor-feeding vessels (patient 1, hepatoma, 28 days after injection) was “no tumor-feeding vessels could be seen”. The “tumor-feeding vessels occluded following the first injection” value with tumor-feeding vessels (patient 1, hepatoma, first dose 1.1 gm, right hepatic artery) was “More than 50%”. For the same compound, the “timing of occlusion of tumor-feeding vessels” value in the data set on tumor-feeding vessels (patient 2, hepatoma) is “essentially simultaneously with the injection”. The “occlusion of tumor-feeding vessels immediately after injection” value is recorded as “complete occlusion” with tumor-feeding vessels (patient 2, hepatoma, 750 mg, right hepatic artery) and “Complete occlusion” in the data set with tumor-feeding vessels (patient 3, giant cell tumor of right femur, 500 mg, femoral/popliteal artery). The “state of occluded tumor-feeding vessels in repeat angiogram” value in the data set on tumor-feeding vessels (patient 3, 10 days after injection) is recorded as “remained closed”. Further, the “occlusion of tumor-feeding vessels immediately after administration” value with tumor-feeding vessels (patient 4, giant cell tumor of left scapula, 660 mg, left subclavian artery) is on record as “Complete occlusion”. In addition, the “state of tumor-feeding vessels in follow-up angiogram” value in the data set with tumor-feeding vessels (setting [4]) is listed as “still occluded”. Also, the “occlusion of tumor-feeding arteries” value in the data set on tumor-feeding vessels (patient 5, renal cell carcinoma, 750 mg, renal artery) is given as “Complete occlusion”. In addition, the “weight gain after injection” value in data set [1] (patient 1, hepatoma, 6 months following the injection) is > 10 kgs. Besides, in data set [1] (patient 1, one month after the first injection), the “reduction in the size of the hepatoma” value is recorded as “More than 50%”. The “state of the tumor mass at follow-up” value in data set [1] (setting [4]) is on record as “completely calcified”. For the same compound, the survival after injection in data set [1] (patient 5, advanced renal cell carcinoma with secondary tumors) came out at 3 months. For the same compound, in data set [2] (all 5 patients), the “side-effects due to the therapy” value is reported as “no significant side-effects”. Further, the “tolerability of the treatment” value in data set [2] (all 5 patients) is listed as “tolerated the treatment well”. The “biochemical tests after administration” value in data set [2] (all patients) was “normal”. Besides, in data set [2] (during and immediately after the injection), the side-effect observed entry is recorded as “mild feeling of warmth followed by pain at the site of the tumor”. Besides, in data set [2] (patient 2, mild to moderate pain in the hepatic region, NSAIDs given), the “time until pain subsided” value lay within 24 to 48 h. The “occlusion of normal arteries feeding the normal lower pole of the kidney” value in data set [3] (patient 5, 750 mg, renal artery) is “without any occlusion”. Further, the “occlusion of normal vasculature feeding non-neoplastic tissues” value in data set [3] (patients treated with PUFA salt, angiograms) was “No occlusion”. In addition, the “spasms or occlusions of normal arteries after injection” value in data set [3] (several other patients, injection into celiac, subclavian and popliteal arteries) is on record as “no spasms or occlusions”.

Consider `CC/C=C\C/C=C\C/C=C\C/C=C\C/C=C\CCCC(=O)O` [EPA, eicosapentaenoic acid], for which, in the data set on tumor cells, the “differential cytotoxic effect, tumor cells versus normal cells” value (shortened to “differential cytotoxic effect”) is recorded as “marked differential cytotoxic effect”.

Consider `CCCCC/C=C\C/C=C\C/C=C\C/C=C\CCCC(=O)O` [AA, arachidonic acid], for which, in the data set with tumor cells, the “differential cytotoxic effect” value is “marked differential cytotoxic effect”.

Take `CCCCC/C=C\C/C=C\C/C=C\CCCCC(=O)O` [GLA, gamma-linolenic acid]: the “selectivity of tumoricidal action in mixed culture” value in the data set on tumor cells (normal and tumor cells grown together) is “more selective tumoricidal action compared to AA and EPA”. Moreover, in the data set on tumor cells, the “differential cytotoxic effect” value is “marked differential cytotoxic effect”. In the data set with human gliomas, the “effect on human gliomas” value is “can regress human gliomas” and the side-effects entry is “without significant side-effects”.

For the compound `CC/C=C\C/C=C\C/C=C\C/C=C\C/C=C\C/C=C\CCC(=O)O` [DHA, docosahexaenoic acid], in the data set on tumor cells, the “differential cytotoxic effect” value was “marked differential cytotoxic effect”.

The values are drawn from patent US6426367B1, “Methods for selectively occluding blood supplies to neoplasias” (EFA Sciences LLC, priority 1999, dated 2002).
